Data reported in patent publication US12655116B2, “Substituted isophthalic acid diamides” (Bayer Aktiengesellschaft, priority 2020, dated 2026).

Legend:
ABUTH [1] = assay: Pre-emergence herbicidal action against ABUTH; format: in vivo, Abutilon theophrasti
How it was run: (§1)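 Visual rating at 3 weeks vs untreated pots; 0–100% scale, 100% = plants died. Treatment: aqueous WP/EC spray onto covering soil, 600–800 l/ha, 0.2% wetter, seeds in sandy loam.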

ALOMY [2] = assay: Pre-emergence herbicidal action against ALOMY; format: in vivo, Alopecurus myosuroides; conditions: pre-emergence; for pest or weed control at 80 g/ha / pest or weed control at 20 g/ha: Alopecurus myosuroides, 504 h; for pest or weed control at 20 g/ha: scored visually after 3 weeks, 100% = plants have died, 0% = like control plants
How it was run: as §1

AMARE [3] = assay: Pre-emergence herbicidal action against AMARE; format: in vivo, Amaranthus retroflexus; conditions: for pest or weed control at 20 g/ha / pest or weed control at 80 g/ha: Amaranthus retroflexus, 504 h
How it was run: as §1

ECHCG [4] = assay: Pre-emergence herbicidal action against ECHCG; format: in vivo, Echinochloa crus-galli; conditions: 80 g/ha; for pest or weed control at 80 g/ha: Echinochloa crus-galli, 504 h
How it was run: as §1

LOLRI = assay: Pre-emergence herbicidal action against LOLRI; format: in vivo, Lolium rigidum; conditions: 80 g/ha; for pest or weed control at 80 g/ha: Lolium rigidum, 504 h
How it was run: as §1

MATIN = assay: Pre-emergence herbicidal action against MATIN; format: in vivo, Matricaria inodora; conditions: for pest or weed control at 20 g/ha / pest or weed control at 80 g/ha: Tripleurospermum inodorum, 504 h
How it was run: as §1

POLCO = assay: Pre-emergence herbicidal action against POLCO; format: in vivo, Polygonum convolvulus; conditions: dosage 80 g/ha; for pest or weed control at 80 g/ha: Fallopia convolvulus, 504 h
How it was run: as §1

SETVI [5] = assay: Pre-emergence herbicidal action against SETVI; format: in vivo, Setaria viridis; conditions: dosage 80 g/ha; for pest or weed control at 80 g/ha: Setaria viridis, 504 h
How it was run: as §1

VERPE [6] = assay: Pre-emergence herbicidal action against VERPE; format: in vivo, Veronica persica
How it was run: as §1

VIOTR [7] = assay: Pre-emergence herbicidal action against VIOTR; format: in vivo, Viola tricolor; conditions: for pest or weed control at 20 g/ha / pest or weed control at 80 g/ha: Viola tricolor, 504 h; for pest or weed control at 20 g/ha: dosage 20 g/ha
How it was run: as §1

DIGSA [8] = assay: Pre-emergence herbicidal action against DIGSA; format: in vivo, Digitaria sanguinalis
How it was run: as §1

ABUTH [9] = assay: Post-emergence herbicidal action against ABUTH; format: in vivo, Abutilon theophrasti; conditions: visual assessment about 3 weeks after treatment vs untreated controls
How it was run: (§2)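 Weeds in sandy loam soil received a post-emergence spray at the one-leaf stage. Compounds were applied as WP or EC in water, 600 to 800 l/ha, with 0.2% wetting agent. Activity in % was judged visually after roughly 3 weeks against untreated plants.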

ALOMY [10] = assay: Post-emergence herbicidal action against ALOMY; format: in vivo, Alopecurus myosuroides; conditions: visual assessment about 3 weeks after treatment vs untreated controls; for pest or weed control at 5 g/ha / pest or weed control at 20 g/ha: Alopecurus myosuroides, 504 h
How it was run: as §2

AMARE [11] = assay: Post-emergence herbicidal action against AMARE; format: in vivo, Amaranthus retroflexus; conditions: 20 g/ha, visual assessment about 3 weeks after treatment, 100% = plants have died, 0% = like control plants; for pest or weed control at 20 g/ha: Amaranthus retroflexus, 504 h
How it was run: as §2

ECHCG [12] = assay: Post-emergence herbicidal action against ECHCG; format: in vivo, Echinochloa crus-galli
How it was run: as §2

PHBPU = assay: Post-emergence herbicidal action against PHBPU; format: in vivo, Pharbitis purpurea
How it was run: as §2

SETVI [13] = assay: Post-emergence herbicidal action against SETVI; format: in vivo, Setaria viridis; conditions: for pest or weed control at 5 g/ha / pest or weed control at 20 g/ha: Setaria viridis, 504 h; for pest or weed control at 5 g/ha: dosage 5 g/ha
How it was run: as §2

VERPE [14] = assay: Post-emergence herbicidal action against VERPE; format: in vivo, Veronica persica; conditions: 20 g/ha
How it was run: as §2

VIOTR [15] = assay: Post-emergence herbicidal action against VIOTR; format: in vivo, Viola tricolor; conditions: 20 g/ha; for pest or weed control at 20 g/ha: Viola tricolor, 504 h
How it was run: as §2

DIGSA [16] = assay: Post-emergence herbicidal action against DIGSA; format: in vivo, Digitaria sanguinalis; conditions: 20 g/ha
How it was run: as §2

AVEFA = assay: Pre-emergence herbicidal action against AVEFA; format: in vivo, Avena fatua; conditions: Avena fatua, 504 h; 80 g/ha, pre-emergence
How it was run: as §1

[17] = 80 g/ha, scored visually after 3 weeks vs untreated controls (100% = plants have died, 0% = like control plants)
[18] = 20 g/ha, scored visually after 3 weeks vs untreated controls, 100% = plants have died, 0% = like control plants
[19] = Abutilon theophrasti, 504 h, 80 g/ha, scored visually after 3 weeks vs untreated controls (100% = plants have died, 0% = like control plants)
[20] = 80 g/ha, scored visually after 3 weeks vs untreated controls, 100% = plants have died, 0% = like control plants
[21] = Abutilon theophrasti, 504 h, dosage 20 g/ha

Cc1c(C(=O)Nc2nnnn2C)ccc(C(F)F)c1C(=O)NCC1CC1 [Example 1-47]
90%: Pre-emergence action against ALOMY (herbicidal activity) (ALOMY [2]; [17]) | Post-emergence action against ALOMY in % (ALOMY [10]; dosage 20 g/ha) | Post-emergence action at 20 g/ha against AMARE in % (AMARE [11]) | Post-emergence action against ECHCG in % (ECHCG [12]; dosage 5 g/ha) | Post-emergence action against ECHCG in % (ECHCG [12]; dosage 20 g/ha) | Post-emergence action against PHBPU in % (PHBPU; dosage 20 g/ha) | Post-emergence action against DIGSA (DIGSA [16])
80%: Pre-emergence action against LOLRI in % (LOLRI) | Pre-emergence action against MATIN in % (MATIN; dosage 20 g/ha) | Post-emergence action against ABUTH in % (ABUTH [9]; dosage 20 g/ha) | Post-emergence action against ALOMY in % (ALOMY [10]; dosage 5 g/ha) | Post-emergence action against PHBPU in % (PHBPU; dosage 5 g/ha) | Post-emergence action against SETVI in % (SETVI [13]; dosage 20 g/ha) | Post-emergence action against VERPE in % (VERPE [14]) | Post-emergence action against VIOTR in % (VIOTR [15])
100%: Pre-emergence action against ABUTH (herbicidal activity) (ABUTH [1]; [17]) | Pre-emergence action against ABUTH (herbicidal activity in percent) (ABUTH [1]; dosage 20 g/ha, scored visually after 3 weeks vs untreated controls, 100% = plants have died, 0% = like control plants) | Pre-emergence action against AMARE in % (AMARE [3]; [18]) | Pre-emergence action against AMARE in % (AMARE [3]; [17]) | Pre-emergence action against ECHCG in % (ECHCG [4]) | Pre-emergence action against MATIN in % (MATIN; dosage 80 g/ha) | Pre-emergence action against POLCO in % (POLCO) | Pre-emergence action against SETVI in % (SETVI [5]) | Pre-emergence action against VERPE in % (VERPE [6]; dosage 80 g/ha) | Pre-emergence action against VIOTR in % (VIOTR [7]; dosage 80 g/ha) | Pre-emergence action against DIGSA in % (DIGSA [8]; dosage 20 g/ha) | Pre-emergence action against DIGSA in % (DIGSA [8]; dosage 80 g/ha)

CCn1nnnc1NC(=O)c1ccc(Br)c(C(=O)NC2CC2)c1Br [Example 2-343]
80%: pest or weed control at 20 g/ha (ALOMY [2]) | pest or weed control at 20 g/ha (MATIN; dosage 20 g/ha) | pest or weed control at 20 g/ha (ABUTH [9]; [21]) | pest or weed control at 5 g/ha (ALOMY [10]; dosage 5 g/ha)
100%: pest or weed control at 80 g/ha (ABUTH [1]; [19]) | pest or weed control at 20 g/ha (AMARE [3]; [18]) | pest or weed control at 80 g/ha (AMARE [3]; [20]) | pest or weed control at 80 g/ha (AVEFA) | pest or weed control at 80 g/ha (MATIN; dosage 80 g/ha) | pest or weed control at 80 g/ha (SETVI [5]) | pest or weed control at 80 g/ha (VIOTR [7]; dosage 80 g/ha) | pest or weed control at 20 g/ha (ALOMY [10]; dosage 20 g/ha) | pest or weed control at 20 g/ha (AMARE [11])
90%: pest or weed control at 80 g/ha (ALOMY [2]; [17]) | pest or weed control at 80 g/ha (ECHCG [4]) | pest or weed control at 80 g/ha (LOLRI) | pest or weed control at 80 g/ha (POLCO) | pest or weed control at 20 g/ha (VIOTR [7]) | pest or weed control at 5 g/ha (SETVI [13]) | pest or weed control at 20 g/ha (SETVI [13]; dosage 20 g/ha) | pest or weed control at 20 g/ha (VIOTR [15])

CCNC(=O)c1c(Br)ccc(C(=O)Nc2nnnn2CC)c1Br [Example 2-342]
80%: pest or weed control at 80 g/ha (ECHCG [4]) | pest or weed control at 80 g/ha (LOLRI) | pest or weed control at 80 g/ha (POLCO) | pest or weed control at 20 g/ha (VERPE [6]; Veronica persica, 504 h, dosage 20 g/ha) | pest or weed control at 80 g/ha (VERPE [6]; Veronica persica, 504 h, dosage 80 g/ha) | pest or weed control at 5 g/ha (ABUTH [9]; Abutilon theophrasti, 504 h, dosage 5 g/ha) | pest or weed control at 5 g/ha (PHBPU; Ipomoea purpurea, 504 h, dosage 5 g/ha) | pest or weed control at 20 g/ha (VIOTR [15])
100%: pest or weed control at 80 g/ha (ABUTH [1]; [19]) | pest or weed control at 20 g/ha (ABUTH [1]; Abutilon theophrasti, 504 h, dosage 20 g/ha, scored visually after 3 weeks vs untreated controls, 100% = plants have died, 0% = like control plants, read-out: Pre-emergence action against ABUTH (herbicidal activity in percent)) | pest or weed control at 80 g/ha (ALOMY [2]; [17]) | pest or weed control at 80 g/ha (AMARE [3]; [20]) | pest or weed control at 80 g/ha (MATIN; dosage 80 g/ha) | pest or weed control at 80 g/ha (SETVI [5]) | pest or weed control at 80 g/ha (VIOTR [7]; dosage 80 g/ha) | pest or weed control at 20 g/ha (AMARE [11])
90%: pest or weed control at 20 g/ha (ALOMY [2]) | pest or weed control at 20 g/ha (AMARE [3]; [18]) | pest or weed control at 80 g/ha (AVEFA) | pest or weed control at 20 g/ha (MATIN; dosage 20 g/ha) | pest or weed control at 20 g/ha (VIOTR [7]) | pest or weed control at 20 g/ha (ABUTH [9]; [21]) | pest or weed control at 5 g/ha (ALOMY [10]; dosage 5 g/ha) | pest or weed control at 20 g/ha (ALOMY [10]; dosage 20 g/ha) | pest or weed control at 20 g/ha (PHBPU; Ipomoea purpurea, 504 h, dosage 20 g/ha) | pest or weed control at 5 g/ha (SETVI [13]) | pest or weed control at 20 g/ha (SETVI [13]; dosage 20 g/ha)
